± gives the standard deviation of the averaged measurements.
Columns and labels:
Assay in all cases: level (log10 ratio to DMSO vehicle control); higher = higher biomarker level / cell amount than vehicle control
Conditions in all cases: in DMSO
[1] = compound: CC(C)(C)C(=O)CC(=O)C(F)(F)C(F)(F)C(F)(F)F [(Heptafluorobutanoyl)pivaloylmethane]
Procedure: (§1)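 BioMAP Diversity Plus panel of 12 human primary cell co-culture systems (3C, 4H, LPS, SAg, BT, BF4T, BE3C, CASM3C, HDF3CGF, KF3CT, MyoF, Mphg). Compounds were added 1 h before stimulation and left for 24 h (MyoF 48 h; BT 72 h for soluble read-outs or 6 d for IgG). Biomarkers were read by ELISA, cytotoxicity by SRB, PBMC viability and proliferation by Alamar Blue. Each well value was divided by the mean of 8 DMSO control wells on the same plate and log10 transformed; duplicate blinded samples were tested at 4 concentrations.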

Perfluorooctanamide = compound: NC(=O)C(F)(F)C(F)(F)C(F)(F)C(F)(F)C(F)(F)C(F)(F)C(F)(F)F [Perfluorooctanamide]
Procedure: as §1

[2] = compound: O=C(O)C(F)(F)C(F)(F)C(F)(F)C(F)(F)C(F)(F)C(F)(F)C(F)(F)C(F)(F)C(F)(F)C(F)(F)C(F)(F)C(F)(F)C(F)(F)F [Perfluorotetradecanoic acid]
Procedure: as §1

Test System | level (log10) ([1]; 6700 nM) | level (log10) ([1]; 20000 nM) | level (log10) ([1]; 60000 nM) | level (log10) (Perfluorooctanamide; 6700 nM) | level (log10) (Perfluorooctanamide; 20000 nM) | level (log10) (Perfluorooctanamide; 60000 nM) | level (log10) ([2]; 6700 nM) | level (log10) ([2]; 20000 nM)
lMphg:CD40 | -0.0075 ± 0.0021 | 0.004 ± 0.034 | -0.017 ± 0.0014 | -0.0285 ± 0.018 | -0.007 ± 0.014 | 0.045 ± 0.0085 | -0.0405 ± 0.036 | -0.031 ± 0.014
lMphg:CD62E/E-Selectin | -0.017 | -0.0085 ± 0.012 | -0.0525 ± 0.011 | 0.022 ± 0.048 | 0.0285 ± 0.043 | -0.0165 ± 0.07 | 0.0125 ± 0.03 | -0.006 ± 0.044
lMphg:CD69 | -0.0145 ± 0.0021 | -0.0025 ± 0.0078 | 0.051 ± 0.011 | 0.0175 ± 0.018 | -0.005 ± 0.025 | -0.0825 ± 0.074 | -0.02 ± 0.038 | -0.007 ± 0.089
lMphg:CD106/VCAM-1 | 0.0115 ± 0.037 | 0.001 ± 0.014 | -0.009 ± 0.0057 | -0.021 ± 0.0071 | 0.006 ± 0.0071 | 0.0435 ± 0.012 | -0.0325 ± 0.028 | -0.017 ± 0.0014
lMphg:CXCL8/IL-8 | 0.002 ± 0.02 | 0.006 ± 0.034 | 0.014 ± 0.064 | 0.013 ± 0.028 | 0.0285 ± 0.012 | 0.031 ± 0.042 | 0.0035 ± 0.032 | 0.0215 ± 0.049
lMphg:IL-1alpha | 0.0265 ± 0.042 | 0.0005 ± 0.0021 | 0.0175 ± 0.013 | 0.01 ± 0.034 | 0.0265 ± 0.054 | 0.04 ± 0.058 | 0.021 ± 0.068 | 0.004 ± 0.05
lMphg:M-CSF | -0.0265 ± 0.039 | -0.027 ± 0.051 | -0.0315 ± 0.032 | 0.0175 ± 0.011 | -0.0055 ± 0.042 | 0.0085 ± 0.059 | -0.0065 ± 0.03 | -0.0175 ± 0.015
lMphg:SRB | -0.001 ± 0.0057 | -0.006 ± 0.0028 | 0.008 ± 0.016 | -0.0015 ± 0.016 | -0.0145 ± 0.0021 | -0.0075 ± 0.011 | -0.0035 ± 0.0035 | -0.0105 ± 0.0078
lMphg:SRB-Mphg | -0.0025 ± 0.0078 | -0.0125 ± 0.012 | 0.0035 ± 0.019 | -0.0145 ± 0.021 | -0.01 ± 0.0071 | -0.016 ± 0.0057 | 0.0035 ± 0.011 | 0.006 ± 0.031
lMphg:sIL-10 | 0.024 ± 0.0099 | -0.0365 ± 0.061 | 0.0125 ± 0.032 | -0.029 ± 0.0028 | 0.013 ± 0.042 | 0.008 ± 0.058 | -0.032 ± 0.0014 | -0.0315 ± 0.033
